For this assay, the target named is T1, soluble guanylate cyclase (sGC) (Homo sapiens, UniProt Q02108+Q02153).
T1 construct: endogenously expressing soluble guanylate cyclase (sGC); endogenous in cells; host or cells: HEK293
T1 sequence (Q02153 1-619): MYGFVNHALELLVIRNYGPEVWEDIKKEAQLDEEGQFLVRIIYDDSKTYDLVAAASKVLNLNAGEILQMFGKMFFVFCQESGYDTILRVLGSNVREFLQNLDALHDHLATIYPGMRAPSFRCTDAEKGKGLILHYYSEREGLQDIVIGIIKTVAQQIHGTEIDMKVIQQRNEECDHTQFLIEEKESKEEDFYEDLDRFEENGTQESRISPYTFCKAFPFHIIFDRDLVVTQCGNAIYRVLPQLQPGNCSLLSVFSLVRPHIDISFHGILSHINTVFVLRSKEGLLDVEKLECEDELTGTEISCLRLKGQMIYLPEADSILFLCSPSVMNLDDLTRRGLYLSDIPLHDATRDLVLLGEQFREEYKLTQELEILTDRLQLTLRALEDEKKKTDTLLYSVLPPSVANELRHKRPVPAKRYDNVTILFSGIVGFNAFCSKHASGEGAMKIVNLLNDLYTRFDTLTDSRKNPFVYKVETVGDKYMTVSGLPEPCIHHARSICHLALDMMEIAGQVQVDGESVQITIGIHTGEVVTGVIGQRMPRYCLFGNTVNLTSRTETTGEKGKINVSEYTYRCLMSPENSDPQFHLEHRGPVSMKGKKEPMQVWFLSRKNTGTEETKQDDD
T1 sequence (Q02108 1-690): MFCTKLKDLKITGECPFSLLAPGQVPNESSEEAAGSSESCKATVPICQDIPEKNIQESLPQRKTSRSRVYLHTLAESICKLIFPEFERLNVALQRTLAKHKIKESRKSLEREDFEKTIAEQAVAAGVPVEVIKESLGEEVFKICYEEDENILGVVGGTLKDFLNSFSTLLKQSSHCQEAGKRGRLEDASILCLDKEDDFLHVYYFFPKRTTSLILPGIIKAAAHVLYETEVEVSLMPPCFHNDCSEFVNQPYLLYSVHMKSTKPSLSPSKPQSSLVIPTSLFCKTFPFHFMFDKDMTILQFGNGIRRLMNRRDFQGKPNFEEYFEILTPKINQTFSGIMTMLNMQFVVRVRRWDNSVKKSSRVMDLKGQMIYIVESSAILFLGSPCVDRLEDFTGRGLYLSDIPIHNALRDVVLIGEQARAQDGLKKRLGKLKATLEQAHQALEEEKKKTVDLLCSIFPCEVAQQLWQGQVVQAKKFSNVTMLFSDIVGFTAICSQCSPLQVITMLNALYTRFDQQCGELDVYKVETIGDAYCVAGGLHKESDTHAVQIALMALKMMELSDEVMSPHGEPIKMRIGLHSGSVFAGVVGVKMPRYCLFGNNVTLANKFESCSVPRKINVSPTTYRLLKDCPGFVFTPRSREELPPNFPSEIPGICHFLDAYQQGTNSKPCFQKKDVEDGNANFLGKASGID
The experiment in a line: sGC-HEK-cGMP assay with LC/MS detection. The class given is cell-based. Particulars: HEK293 whole cells, LC/MS detection of cGMP, 10 μM DETA-NONOate; 50% of high control response (30 μM Compound Y); read-out: Absolute EC50 (nM)- binned (~).
As a reminder, the EC50 is the concentration that produces a half-maximal response. Consider `CC(=O)c1cc(-c2ncc(F)c(N3CCNC(=O)C3)n2)nn1Cc1ccccc1F` [Compound 77], for which the EC50 was over 1000 nM.
Then `CC(=O)c1cc(-c2ncc(F)c(N3CCCC(F)(F)C3)n2)nn1Cc1ccccc1F` [Compound 79], with 100 to 1000 nM.
For `COC1CCN(c2nc(-c3cc(C(C)=O)n(Cc4ccccc4F)n3)ncc2F)C1` (stereo not shown) [Compound 80] the value was 100 to 1000 nM; for `CN(C)c1cc(-c2ncc(F)c(O)n2)nn1Cc1ccccc1F` [Compound 81], over 1000 nM; for `CC(=O)c1cc(-c2ncc(F)c(N)n2)nn1Cc1ccccc1F` [Compound 84], over 1000 nM.
Then `CC(=O)c1cc(-c2ncc(F)c(NCC(O)(C(N)=O)C(F)(F)F)n2)nn1Cc1ccccc1F` (stereo not shown) [Compound 85], with 100 to 1000 nM; and `CC(=O)c1cc(-c2ncc(F)c(NCCCCC(=O)O)n2)nn1Cc1ccccc1F` [Compound 87], with 100 to 1000 nM; and `CC(=O)c1cc(-c2ncc(F)c(N3CCC(S(N)(=O)=O)CC3)n2)nn1Cc1ccccc1F` [Compound 88], with 100 to 1000 nM.
On to `CC(=O)c1cc(-c2ncc(F)c(N3CC(C)C(C(=O)O)C3)n2)nn1Cc1ccccc1F` (stereo not shown) [Compound 89], for which the EC50 fell in the range of 100 to 1000 nM.
Then `CC(=O)c1cc(-c2ncc(F)c(N(C)CC3(C(=O)O)CCCC3)n2)nn1Cc1ccccc1F` [Compound 90], with under 100 nM; and `CC(=O)c1cc(-c2ncc(F)c(N(C)C)n2)nn1Cc1ccccc1F` [Compound 91], with 100 to 1000 nM.
As to `CC(=O)c1cc(-c2ncc(F)c(N3CCCC3)n2)nn1Cc1ccccc1F` [Compound 92], the EC50 was over 1000 nM.
Regarding `CC(=O)c1cc(-c2ncc(F)c(N3CCCCC3)n2)nn1Cc1ccccc1F` [Compound 93], the EC50 fell in the range of 100 to 1000 nM.
For `CC(=O)c1cc(-c2ncc(F)c(N3CCNCC3)n2)nn1Cc1ccccc1F` [Compound 94] the value was over 1000 nM; for `CC(=O)c1cc(-c2ncc(F)c(N3CCOCC3)n2)nn1Cc1ccccc1F` [Compound 95], 100 to 1000 nM; for `CC(=O)c1cc(-c2ncc(F)c(NS(=O)(=O)CCC(F)(F)F)n2)nn1Cc1ccccc1F` [Compound 96], 100 to 1000 nM.
Then `CCCS(=O)(=O)Nc1nc(-c2cc(C(C)=O)n(Cc3ccccc3F)n2)ncc1F` [Compound 97], with over 1000 nM.
Then `CC(=O)c1cc(-c2ncc(F)c(NS(=O)(=O)c3ccccc3)n2)nn1Cc1ccccc1F` [Compound 98], with over 1000 nM; and `CC(=O)c1cc(-c2ncc(F)c(N(C)CC3(C(N)=O)CC3)n2)nn1Cc1ccccc1F` [Compound 99], with 100 to 1000 nM.
Regarding `NC(=O)C(O)(CNc1nc(-c2cc(-c3ncco3)n(Cc3ccccc3F)n2)ncc1F)C(F)(F)F` (stereo not shown) [Compound 102], the EC50 was 100 to 1000 nM.
Then `OC(CNc1nc(-c2cc(-c3ncco3)n(Cc3ccccc3F)n2)ncc1F)(C(F)(F)F)C(F)(F)F` [Compound 103], with 100 to 1000 nM; and `COCc1cc(-c2ncc(F)c(O)n2)nn1Cc1ccccc1F` [Compound 105], with over 30000 nM.
Take `C[C@@](N)(CNc1nc(-c2cc(-c3ccon3)n(Cc3ccccc3F)n2)ncc1F)C(F)(F)F` [Compound 106]: the EC50 is under 100 nM.
For `C[C@@](CNc1nc(-c2cc(-c3ccon3)n(Cc3ccccc3F)n2)ncc1F)(N[C@@H](CO)c1ccccc1)C(F)(F)F` [Compound 107] the value was under 100 nM; for `CC(=O)c1cc(-c2ncc(F)c(N3CCC4(CCOCC4)C3)n2)nn1Cc1ccccc1F` [Compound 112], 100 to 1000 nM.
Then `CC(=O)c1cc(-c2ncc(F)c(N3CCC4(CC3)COC4)n2)nn1Cc1ccccc1F` [Compound 113], with 100 to 1000 nM; and `CC(=O)c1cc(-c2ncc(F)c(N3CC(F)(F)C3)n2)nn1Cc1ccccc1F` [Compound 114], with over 1000 nM.
For `CC(=O)c1cc(-c2ncc(F)c(N3CCS(=O)(=O)C(C)(C)C3)n2)nn1Cc1ccccc1F` [Compound 115] the value was over 1000 nM; for `CC(=O)c1cc(-c2ncc(F)c(N3CC[C@H](O)[C@H](O)C3)n2)nn1Cc1ccccc1F` [Compound 116], 100 to 1000 nM.
On to `CC(=O)c1cc(-c2ncc(F)c(N3CCC(O)C(CO)C3)n2)nn1Cc1ccccc1F` (stereo not shown) [Compound 117], for which the EC50 was in the range of 100 to 1000 nM.
Then `CC(=O)c1cc(-c2ncc(F)c(N3CC4(COC4)C3)n2)nn1Cc1ccccc1F` [Compound 118], with over 1000 nM; and `CC(=O)c1cc(-c2ncc(F)c(N3CCCS3(=O)=O)n2)nn1Cc1ccccc1F` [Compound 119], with over 1000 nM.
Then `CC(=O)c1cc(-c2ncc(F)c(N3CCN(S(C)(=O)=O)CC3)n2)nn1Cc1ccccc1F` [Compound 120], with over 30000 nM.
Then `CC(=O)c1cc(-c2ncc(F)c(N3CC(NC(=O)C(F)(F)F)C3)n2)nn1Cc1ccccc1F` [Compound 121], with over 1000 nM; and `CC(=O)c1cc(-c2ncc(F)c(N3CC(NC(=O)C4(O)CC4)C3)n2)nn1Cc1ccccc1F` [Compound 122], with over 1000 nM; and `CC(=O)c1cc(-c2ncc(F)c(NC3CCCCC3C(=O)O)n2)nn1Cc1ccccc1F` (stereo not shown) [Compound 123], with 100 to 1000 nM.
On to `CC(=O)c1cc(-c2ncc(F)c(NCCO)n2)nn1Cc1ccccc1F` [Compound 125], for which the EC50 was over 1000 nM.
Then `CC(=O)c1cc(-c2ncc(F)c(Nc3nnc(C(F)(F)F)s3)n2)nn1Cc1ccccc1F` [Compound 126], with over 30000 nM; and `OCC(CCCC(F)(F)F)Nc1nc(-c2cc(-c3ccon3)n(Cc3ccccc3F)n2)ncc1F` (stereo not shown) [Compound 127, 6,6,6-trifluoro-2-((5-fluoro-2-(1-(2-fluorobenzyl)-5-(isoxazol-3-yl)-1H-pyrazol-3-yl)pyrimidin-4-yl)amino)hexan-1-ol], with under 100 nM; and `CCC(C)(N)CNc1nc(-c2cc(C(C)=O)n(Cc3ccccc3F)n2)ncc1F` (stereo not shown) [Compound 129, 1-(3-(4-((2-amino-2-methylbutyl)amino)-5-fluoropyrimidin-2-yl)-1-(2-fluorobenzyl)-1H-pyrazol-5-yl)ethanone], with over 1000 nM.
For `C[C@@](CNc1nc(-c2cc(-c3ccon3)n(Cc3ccccc3F)n2)ncc1F)(NC(CO)c1ccccc1)C(F)(F)F` (stereo partly drawn) [Compound 130, 2-phenyl-2-(((S)-1,1,1-trifluoro-3-((5-fluoro-2-(1-(2-fluorobenzyl)-5-(isoxazol-3-yl)-1H-pyrazol-3-yl)pyrimidin-4-yl)amino)-2-methylpropan-2-yl)amino)ethanol] the value was 100 to 1000 nM.
Take `C[C@](CNc1nc(-c2cc(-c3ccon3)n(Cc3ccccc3F)n2)ncc1F)(NC(CO)c1ccccc1)C(F)(F)F` (stereo partly drawn) [Compound 131, 2-phenyl-2-(((R)-1,1,1-trifluoro-3-((5-fluoro-2-(1-(2-fluorobenzyl)-5-(isoxazol-3-yl)-1H-pyrazol-3-yl)pyrimidin-4-yl)amino)-2-methylpropan-2-yl)amino)ethanol]: the EC50 is 100 to 1000 nM.
For `CC(=O)c1cc(-c2ncc(F)c(N3CC(C(=O)O)C(C)(C)C3)n2)nn1Cc1ccccc1F` (stereo not shown) [Compound 136, 1-(2-(5-acetyl-1-(2-fluorobenzyl)-1H-pyrazol-3-yl)-5-fluoropyrimidin-4-yl)-4,4-dimethylpyrrolidine-3-carboxylic acid] the value was 100 to 1000 nM; for `CC(=O)c1cc(-c2ncc(F)c(N[C@@H]3CCCC[C@H]3C(=O)O)n2)nn1Cc1ccccc1F` [Compound 137, (1R,2R)-2-((2-(5-acetyl-1-(2-fluorobenzyl)-1H-pyrazol-3-yl)-5-fluoropyrimidin-4-yl)amino)cyclohex anecarboxylic acid], 100 to 1000 nM; for `CC(=O)c1cc(-c2ncc(F)c(N[C@@H](CC(=O)O)C(C)C)n2)nn1Cc1ccccc1F` [Compound 138, (S)-3-((2-(5-acetyl-1-(2-fluorobenzyl)-1H-pyrazol-3-yl)-5-fluoropyrimidin-4-yl)amino)-4-methylpentanoic acid], 100 to 1000 nM.
For `CC(=O)c1cc(-c2ncc(F)c(N3CCC(C(=O)O)(c4ccccc4)CC3)n2)nn1Cc1ccccc1F` [Compound 139, 1-(2-(5-acetyl-1-(2-fluorobenzyl)-1H-pyrazol-3-yl)-5-fluoropyrimidin-4-yl)-4-phenylpiperidine-4-carboxylic acid] the value was 100 to 1000 nM.

The record behind these values is patent US20190284168A1, “PYRAZOLE DERIVATIES AS SGC STIMULATORS” (IRONWOOD PHARMACEUTICALS, INC., priority 2014, published 2019).
